Measurements published in ChEMBL document CHEMBL2406972, “Synthesis and antitumor activities of novel dibenzo[b,d]furan-imidazole hybrid compounds” (Eur J Med Chem, 2013).

How the values were obtained:
Format in all cases: functional, cell-based
[1] = system: A549; assay: Cytotoxicity against human A549 cells after 48 hrs by MTT assay; details: A549, 48 h
[2] = system: SMMC-7721; assay: Cytotoxicity against human SMMC7721 cells after 48 hrs by MTT assay; details: SMMC-7721, 48 h
[3] = system: SW480; assay: Cytotoxicity against human SW480 cells after 48 hrs by MTT assay; details: SW480, 48 h
[4] = system: MCF7; assay: Cytotoxicity against human MCF7 cells after 48 hrs by MTT assay; details: MCF7, 48 h
[5] = system: HL-60; assay: Cytotoxicity against human HL60 cells after 48 hrs by MTT assay; details: HL-60, 48 h

Work on `CC(c1ccc2oc3ccccc3c2c1)n1cnc2ccccc21` (stereo not given) yielded an IC50 [1] greater than 40 µM, an IC50 [2] greater than 40 µM and an IC50 [3] greater than 40 µM. The IC50 [4] was greater than 40 µM and the IC50 [5] was greater than 40 µM.

For `CC(c1ccc2oc3ccccc3c2c1)n1cc[n+](CC(=O)c2ccccc2)c1` (stereo not given), the IC50 [1] was 27 µM, the IC50 [2] was 12.1 µM and the IC50 [3] was 14.4 µM. For the same compound, the IC50 [4] was 14.1 µM and the IC50 [5] was 2.55 µM.

`COc1ccc(C(=O)C[n+]2ccn(C(C)c3ccc4oc5ccccc5c4c3)c2C)cc1` (stereo not given) was tested, and the IC50 [1] was 3.02 µM, the IC50 [2] was 1.43 µM and the IC50 [3] was 5.78 µM. The IC50 [4] was 1.29 µM and the IC50 [5] was 0.7 µM.

For `O=C(C[n+]1ccn(C(c2ccccc2)c2ccc3oc4ccccc4c3c2)c1)c1ccc2ccccc2c1` (stereo not given), the IC50 [1] was 5.86 µM, the IC50 [2] was 3.61 µM and the IC50 [3] was 2.57 µM. It also gave an IC50 [4] of 2.78 µM and an IC50 [5] of 1.91 µM.

With `O=[N+]([O-])c1ccc(C[n+]2cn(C(c3ccccc3)c3ccc4oc5ccccc5c4c3)c3ccccc32)cc1` (stereo not given) the IC50 [1] was 21.7 µM, the IC50 [2] was 13.2 µM and the IC50 [3] was 16.7 µM. For the same compound, the IC50 [4] was 9.26 µM and the IC50 [5] was 4.6 µM.

`CC(c1ccc2oc3ccccc3c2c1)n1c[n+](CC(=O)c2ccc3ccccc3c2)c2ccccc21` (stereo not given) showed an IC50 [1] of 3.46 µM, an IC50 [2] of 2.24 µM and an IC50 [3] of 2.95 µM. It also gave an IC50 [4] of 3.14 µM and an IC50 [5] of 1.65 µM.

Work on `CC(c1ccc2oc3ccccc3c2c1)n1c[n+](CC(=O)c2ccc(Br)cc2)c2ccccc21` (stereo not given) yielded an IC50 [1] of 3.54 µM, an IC50 [2] of 2.62 µM and an IC50 [3] of 3.18 µM. The IC50 [4] was 3.08 µM and the IC50 [5] was 0.66 µM.

For `COc1ccc(C(=O)C[n+]2ccn(C(C)c3ccc4oc5ccccc5c4c3)c2)cc1` (stereo not given), the IC50 [1] was 12.2 µM, the IC50 [2] was 9.98 µM and the IC50 [3] was 12.7 µM. The IC50 [4] was 9.02 µM and the IC50 [5] was 3.45 µM.

`Cc1nccn1C(c1ccccc1)c1ccc2oc3ccccc3c2c1` (stereo not given) was tested, and the IC50 [1] was 18.2 µM, the IC50 [2] was 30.2 µM and the IC50 [3] was greater than 40 µM. The IC50 [4] was 23.5 µM and the IC50 [5] was 14.5 µM.

`CCCC[n+]1cn(C(c2ccccc2)c2ccc3oc4ccccc4c3c2)c2ccccc21` (stereo not given) showed an IC50 [1] of 4.61 µM, an IC50 [2] of 2.93 µM and an IC50 [3] of 8 µM. For the same compound, the IC50 [4] was 3.37 µM and the IC50 [5] was 1.12 µM.

With `Cc1n(C(C)c2ccc3oc4ccccc4c3c2)cc[n+]1CC(=O)c1ccc(F)cc1` (stereo not given) the IC50 [1] was 15.4 µM, the IC50 [2] was 4.7 µM and the IC50 [3] was 12.3 µM. For the same compound, the IC50 [4] was 16.2 µM and the IC50 [5] was 2.96 µM.

For `Cc1n(C(C)c2ccc3oc4ccccc4c3c2)cc[n+]1CC(=O)c1ccc(Br)cc1` (stereo not given), the IC50 [1] was 12.8 µM, the IC50 [2] was 6.4 µM and the IC50 [3] was 11.8 µM. The IC50 [4] was 6.77 µM and the IC50 [5] was 2.67 µM.

Work on `CC(c1ccc2oc3ccccc3c2c1)n1cc[n+](CC(=O)c2ccc3ccccc3c2)c1` (stereo not given) yielded an IC50 [1] of 8.46 µM, an IC50 [2] of 6.43 µM and an IC50 [3] of 3.69 µM. For the same compound, the IC50 [4] was 3.5 µM and the IC50 [5] was 2.46 µM.

With `CC(c1ccc2oc3ccccc3c2c1)n1c[n+](Cc2ccc([N+](=O)[O-])cc2)c2ccccc21` (stereo not given) the IC50 [1] was 32.3 µM, the IC50 [2] was 18.4 µM and the IC50 [3] was 13.4 µM. It also gave an IC50 [4] of 13.8 µM and an IC50 [5] of 5.93 µM.

`Cc1nccn1C(C)c1ccc2oc3ccccc3c2c1` (stereo not given) gave an IC50 [1] of 16.2 µM, an IC50 [2] greater than 40 µM and an IC50 [3] of 21.4 µM. The IC50 [4] was 18.7 µM and the IC50 [5] was 10.9 µM.

`CC(c1ccc2oc3ccccc3c2c1)n1cc[n+](CC(=O)c2ccc(F)cc2)c1` (stereo not given) gave an IC50 [1] of 22.6 µM, an IC50 [2] of 17.5 µM and an IC50 [3] of 16.4 µM. It also gave an IC50 [4] of 16.7 µM and an IC50 [5] of 2.64 µM.

Compound `O=C(C[n+]1cn(C(c2ccccc2)c2ccc3oc4ccccc4c3c2)c2ccccc21)c1ccc(O)cc1` (stereo not given) has an IC50 [1] of 17.7 µM, an IC50 [2] of 10.8 µM and an IC50 [3] of 15.6 µM. The IC50 [4] was 9.15 µM and the IC50 [5] was 2.89 µM.

`COc1ccc(C(=O)C[n+]2cn(C(c3ccccc3)c3ccc4oc5ccccc5c4c3)c3ccccc32)cc1` (stereo not given) was tested, and the IC50 [1] was 3.34 µM, the IC50 [2] was 2.1 µM and the IC50 [3] was 5.56 µM. For the same compound, the IC50 [4] was 4.78 µM and the IC50 [5] was 0.64 µM.
